Experimental data as given in US20250064990A1, “METHODS OF SCREENING FOR VMAT2 INHIBITORS” (Neurocrine Biosciences, Inc., priority 2021, published 2025).
Values after ≈ are worked out from the molar mass of the structure shown. Where two headings read alike, the source gives them in different places.

Biological target: VMAT2 (Homo sapiens, UniProt Q05940)
Experiment: VMAT2 target occupancy of single oral doses of NBI-750142 in healthy adult male subjects, [^18F]AV-133 PET
Type: in vivo
Design: from tissue; host or cells: brain (caudate, putamen, midbrain) of living healthy adult male subjects
Details: for [^18F]AV-133 BPND T2 / NBI-750142 T2 Occ: T2 (18 h post dose); for NBI-750142 T1 Occ / [^18F]AV-133 BPND T1: T1 ([…] post dose); for EC50: read-out: EC50 (NBI-750142 plasma concentration vs VMAT2 striatal occupancy) (converted)
Experimental: This study was conducted to evaluate the brain penetration and target engagement of VMAT2 after single oral doses of NBI-750142 in healthy subjects. This PET study assessed the engagement of NBI-750142 with VMAT2 in vivo at two time-points after dosing. A sequential-cohort design allowed for the safety, target-occupancy, and available pharmacokinetic (PK) data from each prior cohort to be evaluated before selection of the dose level for the next cohort. A range of NBI-750142 doses (max. 200 mg) were studied to explore the relationship between NBI-750142 plasma concentrations and engagement of VMAT2 in selected brain regions.
This was a Phase 1 single-center, open-label, single-dose, target occupancy study of NBI-750142 in up to 12 healthy male subjects using [^18F]AV-133 PET imaging. […] A total of 12 subjects completed the study. Subjects enrolled in the study were required to report to the clinical research site for 4 separate occasions, detailed below.
Two subjects were initially enrolled in each dose cohort. Each subject received one brain structural magnetic resonance imaging (MRI) scan during screening and up to 3 [^18F]AV-133 PET scans (1 baseline and up to 2 follow-up scans after receiving a single dose of NBI-750142). Subjects enrolled in the first cohort received a single dose of 100 mg of NBI-750142 orally on Day 1. PET scans occurred on Day 1 at approximately 1.5 hours post NBI-750142 dose and on Day 2 at approximately 18 hours post NBI-750142 dose. Subjects were then discharged from the study center after all Day 3 procedures and assessments were completed.
Subjects were administered a single dose of [^18F]AV-133 intravenously over 3 minutes using an infusion pump (approximately 3.33 mL per minute) through a venous catheter followed by a 10 mL saline flush. Dynamic PET imaging of the brain was acquired over 120 min following radiotracer injection on a Siemens Biograph 6 PET/CT camera according to the following protocol: • CT scan of the head • [^18F]AV-133 injection (T=0 min) • Emission scan: 6×30 sec, 4×1 min, 4×2 min, 21×5 min (0-120 min)
Reconstructed PET imaging data volumes were transferred to the image processing PMOD software package (PMOD Technologies, Zurich, Switzerland) where the images were motion and decay corrected, realigned onto the subject MRI and subsequently normalized into the standard MNI (Montreal Neurological Institute) space where volumes of interest (VOIs) were defined from a template (see e.g., Hammers et al, Adult brain maximum probability map (“Hammersmith atlas”; n30r83) in MNI space. 2008). The subject MRI was segmented into grey matter, white matter, and CSF maps. Average activity concentration (kBq/cc) within each VOI, constrained to grey matter voxels for cortical regions, were determined and time activity curves (TACs) were generated. TACs were extracted from the following VOIs: caudate and putamen (striatum), midbrain, cerebellar and occipital cortices. TACs and were expressed in standard uptake value (SUV) units (g/mL) by normalizing with the weight of the subject and the injected dose. The occipital cortex was used as a reference region to normalize activity in target regions to generate SUVr images. For visualization, standard uptake value ratio (SUVr) images were computed between 60-120 min. Non-displaceable binding potential (BPND), the primary outcome measure, was estimated with noninvasive Logan graphical analysis (NI-LGA, t*=20 min) in caudate, putamen and midbrain using the occipital cortex as the reference region. Percent measured occupancy (OM) of NBI-750142 (drug) by region was computed according to the Equation 3-1 at each of the post-dose timepoints, T1 (1.5 h post dose) and T2 (18 h post dose).
Post-hoc exploratory analysis applied an Upregulation model (Equation 3-3), in order to account for the apparent ‘negative occupancy’ values observed at T2 (BPND values at T2 were unexpectedly higher than corresponding BPND values at baseline). […]

[1] = Cohort 4, 60 mg, Subject 1, Midbrain
[2] = Cohort 4, 60 mg, Subject 1, Putamen
[3] = Cohort 4, 60 mg, Subject 2, Caudate
[4] = Cohort 4, 60 mg, Subject 2, Midbrain
[5] = Cohort 4, 60 mg, Subject 2, Putamen
[6] = Cohort 5A, 10 mg, Subject 1, Caudate (2nd line so labelled)
[7] = Cohort 5A, 10 mg, Subject 1, Caudate
[8] = Cohort 5A, 10 mg, Subject 1, Midbrain
[9] = Cohort 5A, 10 mg, Subject 2, Caudate (2nd line so labelled)
[10] = Cohort 5A, 10 mg, Subject 2, Caudate
[11] = Cohort 5A, 10 mg, Subject 2, Midbrain
[12] = Cohort 5B, 10 mg, Subject 3, Caudate
[13] = Cohort 5B, 10 mg, Subject 3, Midbrain
[14] = Cohort 5B, 10 mg, Subject 3, Putamen
[15] = Cohort 5B, 10 mg, Subject 4, Caudate
[16] = Cohort 5B, 10 mg, Subject 4, Midbrain
[17] = Cohort 5B, 10 mg, Subject 4, Putamen
[18] = Upregulation model, post hoc exploratory, both T1 and T2 data
[19] = average of caudate and putamen, 100 mg

Sequence of VMAT2 (Q05940 whole entry): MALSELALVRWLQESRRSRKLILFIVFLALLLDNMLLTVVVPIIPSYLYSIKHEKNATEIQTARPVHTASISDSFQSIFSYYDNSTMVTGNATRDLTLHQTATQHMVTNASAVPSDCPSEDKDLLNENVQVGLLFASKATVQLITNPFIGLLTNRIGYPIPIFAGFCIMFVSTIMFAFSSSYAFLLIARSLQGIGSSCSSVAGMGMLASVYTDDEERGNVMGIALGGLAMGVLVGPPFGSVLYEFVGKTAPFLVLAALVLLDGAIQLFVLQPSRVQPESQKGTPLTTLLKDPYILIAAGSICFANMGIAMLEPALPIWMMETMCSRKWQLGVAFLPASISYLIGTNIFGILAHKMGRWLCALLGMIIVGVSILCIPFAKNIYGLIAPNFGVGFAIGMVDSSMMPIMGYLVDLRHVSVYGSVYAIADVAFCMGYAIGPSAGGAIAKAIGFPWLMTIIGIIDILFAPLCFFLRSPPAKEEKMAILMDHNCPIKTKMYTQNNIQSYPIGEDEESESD

In the case of COc1cc2c(cc1OC)[C@H]1CN(C)[C@H](CC(C)(C)C)CN1CC2 [NBI-750142], the “[^18F]AV-133 BPND T2” value (Cohort 4, 60 mg, Subject 1, Caudate) was 1.69, the “NBI-750142 T1 Occ” value [1] was 55% and the “[^18F]AV-133 BPND T1” value [1] was 0.20. The “NBI-750142 T2 Occ” value [1] was −1%, the “[^18F]AV-133 BPND T2” value [1] was 0.44 and the “NBI-750142 T1 Occ” value [2] was 39%. For the same molecule, the “[^18F]AV-133 BPND T1” value [2] was 1.10, the “NBI-750142 T2 Occ” value [2] was −12% and the “[^18F]AV-133 BPND T2” value [2] was 2.01. The “NBI-750142 T1 Occ” value [3] was 11%, the “[^18F]AV-133 BPND T1” value [3] was 1.26 and the “NBI-750142 T2 Occ” value [3] was −13%. The “[^18F]AV-133 BPND T2” value [3] was 1.61, the “NBI-750142 T1 Occ” value [4] was 27% and the “[^18F]AV-133 BPND T1” value [4] was 0.28. For the same molecule, the “NBI-750142 T2 Occ” value [4] was −12%, the “[^18F]AV-133 BPND T2” value [4] was 0.42 and the “NBI-750142 T1 Occ” value [5] was 8%. For the same molecule, the “[^18F]AV-133 BPND T1” value [5] was 1.73, the “NBI-750142 T2 Occ” value [5] was −12% and the “[^18F]AV-133 BPND T2” value [5] was 2.09. The “Occupancy at T2 in striatum” value (Cohort 4 at 60 mg, subject 1, 18 h post dose) was −10%, the “Occupancy at T2 in striatum” value (Cohort 4 at 60 mg, subject 2, 18 h post dose) was −12% and the “Occupancy at T2 in striatum” value (Cohort 5A at 10 mg, subject 1, 18 h post dose) was −3%. The “Occupancy at T2 in striatum” value (Cohort 5A at 10 mg, subject 2, 18 h post dose) was −4%, the “NBI-750142 T1 Occ” value [6] was 26% and the “[^18F]AV-133 BPND T1” value [6] was 1.76. The “NBI-750142 T2 Occ” value [6] was −4%, the “[^18F]AV-133 BPND T2” value [6] was 2.48 and the “NBI-750142 T1 Occ” value [7] was 27%. The “[^18F]AV-133 BPND T1” value [7] was 1.14, the “NBI-750142 T2 Occ” value [7] was −2% and the “[^18F]AV-133 BPND T2” value [7] was 1.58. For the same molecule, the “NBI-750142 T1 Occ” value [8] was 41%, the “[^18F]AV-133 BPND T1” value [8] was 0.31 and the “NBI-750142 T2 Occ” value [8] was 1%. The “[^18F]AV-133 BPND T2” value [8] was 0.52, the “NBI-750142 T1 Occ” value [9] was 9% and the “[^18F]AV-133 BPND T1” value [9] was 2.88. The “NBI-750142 T2 Occ” value [9] was −6%, the “[^18F]AV-133 BPND T2” value [9] was 3.34 and the “NBI-750142 T1 Occ” value [10] was 11%. For the same molecule, the “[^18F]AV-133 BPND T1” value [10] was 1.98, the “NBI-750142 T2 Occ” value [10] was −3% and the “[^18F]AV-133 BPND T2” value [10] was 2.29. The “NBI-750142 T1 Occ” value [11] was 20%, the “[^18F]AV-133 BPND T1” value [11] was 0.43 and the “NBI-750142 T2 Occ” value [11] was −19%. For the same molecule, the “[^18F]AV-133 BPND T2” value [11] was 0.65, the “Occupancy at T2 in striatum” value (Cohort 5B at 10 mg, subject 3, 18 h post dose) was −14% and the “Occupancy at T2 in striatum” value (Cohort 5B at 10 mg, subject 4, 18 h post dose) was 5%. The “NBI-750142 T1 Occ” value [12] was −2%, the “[^18F]AV-133 BPND T1” value [12] was 2.51 and the “NBI-750142 T2 Occ” value [12] was −14%. For the same molecule, the “[^18F]AV-133 BPND T2” value [12] was 2.81, the “NBI-750142 T1 Occ” value [13] was 19% and the “[^18F]AV-133 BPND T1” value [13] was 0.40. The “NBI-750142 T2 Occ” value [13] was −14%, the “[^18F]AV-133 BPND T2” value [13] was 0.56 and the “NBI-750142 T1 Occ” value [14] was −2%. The “[^18F]AV-133 BPND T1” value [14] was 2.90, the “NBI-750142 T2 Occ” value [14] was −14% and the “[^18F]AV-133 BPND T2” value [14] was 3.25. The “NBI-750142 T1 Occ” value [15] was −4%, the “[^18F]AV-133 BPND T1” value [15] was 2.35 and the “NBI-750142 T2 Occ” value [15] was 4%. The “[^18F]AV-133 BPND T2” value [15] was 2.16, the “NBI-750142 T1 Occ” value [16] was 0% and the “[^18F]AV-133 BPND T1” value [16] was 0.52. The “NBI-750142 T2 Occ” value [16] was −2%, the “[^18F]AV-133 BPND T2” value [16] was 0.53 and the “NBI-750142 T1 Occ” value [17] was −3%. For the same molecule, the “[^18F]AV-133 BPND T1” value [17] was 3.03, the “NBI-750142 T2 Occ” value [17] was 6% and the “[^18F]AV-133 BPND T2” value [17] was 2.75. The EC50 (Emax model, T1 occupancy values alone) was 76.7 nM, the “EC50 (NBI-750142 plasma concentration vs VMAT2 striatal occupancy)” value (Emax model, both T1 and T2 occupancy values) was 0.0352 µg/mL (≈ 0.106 µM) and the “upregulation factor (URF)” value (Upregulation model, both T1 and T2 data) was 2.76. The “EC50 (NBI-750142 plasma concentration vs VMAT2 striatal occupancy)” value [18] was 0.0063 µg/mL (≈ 0.0189 µM), the EC50 [18] was 19.5 nM and the “[^18F]AV-133 striatal uptake at T2” value (across all cohorts) was “appeared to return to, or slightly exceed, baseline levels”. The “Occupancy in the striatum at T1, lower end of range” value (average of caudate and putamen, 10 mg) was −4%, the “Occupancy in the striatum at T1, upper end of range” value [19] was 76% and the “Occupancy in the striatum at T2, upper end of range” value [19] was 14%. The “Occupancy in the striatum at T2, lower end of range” value (average of caudate and putamen, 200 mg) was −28%.
